ChEMBL document CHEMBL1201862, “PubChem BioAssay data set” (2004)
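Tested at 5 concentrations; 48 h exposure; 96-well plates; endpoints linearly interpolated, else capped at highest concentration. Here, GI50 denotes the concentration required for 50% inhibition of growth.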 The source made the active and inactive calls. No stated cut-off is given here; in the data, active = GI50 up to about 1.1 µM and inactive = higher.

How the values were obtained:
Assay in all cases: NCI tumour cell line growth inhibition, 48 h
786-0 = tested on: 786-0
COLO 205 = tested on: COLO 205
DMS-114 = tested on: DMS-114
HCT-15 = tested on: HCT-15
K562 = tested on: K562
KM-20L2 = tested on: KM-20L2
M14 = tested on: M14
OVCAR-5 = tested on: OVCAR-5
OVCAR-8 = tested on: OVCAR-8
SF-268 = tested on: SF-268
SF-295 = tested on: SF-295
SK-MEL-28 = tested on: SK-MEL-28
SK-MEL-2 = tested on: SK-MEL-2
SK-MEL-5 = tested on: SK-MEL-5
SW-620 = tested on: SW-620
UACC-257 = tested on: UACC-257
SR = tested on: SR

Row | SMILES | GI50 (786-0) | GI50 (COLO 205) | GI50 (DMS-114) | GI50 (HCT-15) [µM] | GI50 (K562) | GI50 (KM-20L2) | GI50 (M14) | GI50 (OVCAR-5) | GI50 (OVCAR-8) | GI50 (SF-268) | GI50 (SF-295) | GI50 (SK-MEL-28) | GI50 (SK-MEL-2) | GI50 (SK-MEL-5) | GI50 (SW-620) | GI50 (UACC-257) | GI50 (SR)
1 | Cc1nc(C(N)=S)sc1C(=O)/C=C/c1c(O)ccc2ccccc12 | > 74.3 µM (inactive) | > 100 µM (inactive) | 32.5 µM (inactive) | > 95.9 | 25.9 µM (inactive) | > 100 µM (inactive) | > 100 µM (inactive) | > 100 µM (inactive) | 68.5 µM (inactive) | 28.5 µM (inactive) | 51.5 µM (inactive) | > 71.6 µM (inactive) | > 100 µM (inactive) | 32.4 µM (inactive) | 39.4 µM (inactive) | > 75.9 µM (inactive) | –
2 | NC(Cc1ccccc1)C(=O)OCN1C(=O)C2C3C=CC(C2C1=O)C1C2C(=O)N(COC(=O)C(N)Cc4ccccc4)C(=O)C2C31 (configuration not stated) | 21.1 µM (inactive) | 17.5 µM (inactive) | 20.9 µM (inactive) | 17.8 | 25.8 µM (inactive) | 28.4 µM (inactive) | 20.4 µM (inactive) | 47 µM (inactive) | 23.7 µM (inactive) | 25.9 µM (inactive) | 48 µM (inactive) | 22.9 µM (inactive) | – | 18.3 µM (inactive) | 19.5 µM (inactive) | 28.8 µM (inactive) | 27.7 µM (inactive)
3 | Cn1c(=O)nc2n(-c3cccc(Cl)c3)c3ccccc3nc-2c1=O | 15.6 µM (inactive) | 4.11 µM (inactive) | 6.34 µM (inactive) | 13 | 14.1 µM (inactive) | 5.92 µM (inactive) | 7.93 µM (inactive) | 22.5 µM (inactive) | 18 µM (inactive) | 18.2 µM (inactive) | 16.6 µM (inactive) | – | 17.1 µM (inactive) | 10.5 µM (inactive) | 11.2 µM (inactive) | 10.9 µM (inactive) | –
4 | CC(=O)NNc1nc(C)c(C(=O)/C=C/c2ccc(N(C)C)cc2)s1 | > 100 µM (inactive) | > 100 µM (inactive) | > 100 µM (inactive) | > 100 | > 100 µM (inactive) | > 100 µM (inactive) | – | > 100 µM (inactive) | > 100 µM (inactive) | > 100 µM (inactive) | > 100 µM (inactive) | > 100 µM (inactive) | > 100 µM (inactive) | > 100 µM (inactive) | > 100 µM (inactive) | > 100 µM (inactive) | –
5 | COc1cc(CNC2c3cc4c(cc3C(c3cc(OC)c(OC)c(OC)c3)[C@H]3C(=O)OCC23)OCO4)cc(OC)c1OC (some centres not stated) | 0.428 µM (active) | 0.18 µM (active) | 0.197 µM (active) | 0.324 | 0.298 µM (active) | 0.197 µM (active) | 0.447 µM (active) | > 100 µM (inactive) | 0.247 µM (active) | 0.372 µM (active) | 0.137 µM (active) | – | 0.426 µM (active) | 0.216 µM (active) | 0.416 µM (active) | > 100 µM (inactive) | 0.314 µM (active)
6 | NC1=NN(c2ccccc2)C(=O)C1C(=O)C(=O)Nc1cccc(C(F)(F)F)c1 (configuration not stated) | > 100 µM (inactive) | > 100 µM (inactive) | > 100 µM (inactive) | > 100 | 86.1 µM (inactive) | > 100 µM (inactive) | > 100 µM (inactive) | > 100 µM (inactive) | > 100 µM (inactive) | > 100 µM (inactive) | > 100 µM (inactive) | – | > 100 µM (inactive) | > 100 µM (inactive) | > 100 µM (inactive) | > 100 µM (inactive) | –
7 | CCOc1ccc(NC(=O)C(=O)CC(=O)C2=C(C)Nc3ccccc3S2)cc1 | > 50 µM (inactive) | > 50 µM (inactive) | > 50 µM (inactive) | > 50 | > 50 µM (inactive) | > 50 µM (inactive) | > 50 µM (inactive) | > 50 µM (inactive) | > 50 µM (inactive) | > 50 µM (inactive) | > 50 µM (inactive) | > 50 µM (inactive) | > 50 µM (inactive) | > 50 µM (inactive) | > 50 µM (inactive) | > 50 µM (inactive) | –
8 | Cc1ccc(C2=C(c3ccccc3)C(O)(c3ccc(C)cc3)C(c3ccccc3)=C2c2ccc(C)cc2)cc1 | > 100 µM (inactive) | > 100 µM (inactive) | > 100 µM (inactive) | > 100 | > 100 µM (inactive) | > 100 µM (inactive) | 82 µM (inactive) | > 100 µM (inactive) | > 100 µM (inactive) | > 100 µM (inactive) | > 100 µM (inactive) | > 100 µM (inactive) | > 100 µM (inactive) | > 100 µM (inactive) | > 100 µM (inactive) | > 100 µM (inactive) | –
9 | Cc1ccc(C(=O)/C=C/c2ccccc2Cl)cc1 | 16.2 µM (inactive) | 24.2 µM (inactive) | 18.3 µM (inactive) | 15 | 19.7 µM (inactive) | 16.7 µM (inactive) | 17.6 µM (inactive) | 17.1 µM (inactive) | 15.8 µM (inactive) | 20.5 µM (inactive) | 19.2 µM (inactive) | 14.2 µM (inactive) | – | 20.9 µM (inactive) | 13.6 µM (inactive) | 15.4 µM (inactive) | –
10 | CNC(=O)N(CCCCC(NC(C)=O)C(=O)NCc1ccccc1)Cc1ccccc1 (configuration not stated) | > 100 µM (inactive) | > 100 µM (inactive) | > 100 µM (inactive) | > 100 | > 100 µM (inactive) | > 100 µM (inactive) | > 100 µM (inactive) | > 100 µM (inactive) | > 100 µM (inactive) | > 100 µM (inactive) | > 100 µM (inactive) | > 100 µM (inactive) | > 100 µM (inactive) | > 100 µM (inactive) | > 100 µM (inactive) | > 100 µM (inactive) | –
11 | CCOC(=O)c1ccc(/N=C\c2ccc(N(CCC#N)CCC#N)cc2)cc1 | 99.5 µM (inactive) | 53.7 µM (inactive) | 70 µM (inactive) | 21.4 | 28.2 µM (inactive) | 27.7 µM (inactive) | 36.5 µM (inactive) | > 100 µM (inactive) | 89.1 µM (inactive) | 84.7 µM (inactive) | > 100 µM (inactive) | > 100 µM (inactive) | > 100 µM (inactive) | 78.3 µM (inactive) | 81.5 µM (inactive) | > 100 µM (inactive) | –
12 | CC1=C(/C(C)=N/NC(=O)c2ccccc2O)C(C)C(/C(C)=N/NC(=O)c2ccccc2O)=C(C)N1 | 18.5 µM (inactive) | – | 16.2 µM (inactive) | 22.8 | 16.6 µM (inactive) | 33.3 µM (inactive) | 30.2 µM (inactive) | 24.2 µM (inactive) | 16.8 µM (inactive) | 25.6 µM (inactive) | – | 21.8 µM (inactive) | – | 19.8 µM (inactive) | 33.6 µM (inactive) | 23.5 µM (inactive) | 23.8 µM (inactive)
13 | O/N=C1/C(=C/c2ccc(Br)cc2)CCCC1C(NO)c1ccc(Br)cc1 (configuration not stated) | 16.8 µM (inactive) | 15.3 µM (inactive) | 13.5 µM (inactive) | 17.3 | > 100 µM (inactive) | 17.3 µM (inactive) | 15.4 µM (inactive) | 11.4 µM (inactive) | 16.1 µM (inactive) | 13.6 µM (inactive) | 16.7 µM (inactive) | 18.6 µM (inactive) | 16.7 µM (inactive) | – | 20.4 µM (inactive) | 17.5 µM (inactive) | –
14 | Cc1cc(OC(=O)c2c(C)cc(OC(=O)c3c(C)cc(O)cc3O)cc2O)cc(O)c1C(=O)O [GYROPHORIC ACID] | > 100 µM (inactive) | > 100 µM (inactive) | > 100 µM (inactive) | – | > 100 µM (inactive) | > 100 µM (inactive) | > 100 µM (inactive) | > 100 µM (inactive) | > 100 µM (inactive) | > 100 µM (inactive) | > 100 µM (inactive) | > 100 µM (inactive) | > 100 µM (inactive) | > 100 µM (inactive) | > 100 µM (inactive) | > 100 µM (inactive) | –
15 | CC1(C)CC(C2CC(C)(C)CC(C)(C)[C@H]2O)[C@@H](O)C(C)(C)C1 (some centres not stated) | > 100 µM (inactive) | > 100 µM (inactive) | > 100 µM (inactive) | > 100 | > 100 µM (inactive) | > 100 µM (inactive) | > 100 µM (inactive) | – | > 100 µM (inactive) | > 100 µM (inactive) | > 100 µM (inactive) | > 100 µM (inactive) | – | > 100 µM (inactive) | > 100 µM (inactive) | > 100 µM (inactive) | > 100 µM (inactive)
16 | CC(=O)OC1C=CC2CCN3C(=O)c4cc5c(cc4[C@H]1C23)OCO5 (some centres not stated) | > 100 µM (inactive) | > 100 µM (inactive) | > 100 µM (inactive) | > 100 | > 100 µM (inactive) | > 100 µM (inactive) | > 100 µM (inactive) | – | > 100 µM (inactive) | > 100 µM (inactive) | > 100 µM (inactive) | > 100 µM (inactive) | – | – | > 100 µM (inactive) | > 100 µM (inactive) | > 100 µM (inactive)
17 | C#CC[N+](C)(CC#C)CC#C | > 100 µM (inactive) | > 100 µM (inactive) | > 100 µM (inactive) | > 100 | > 100 µM (inactive) | > 100 µM (inactive) | > 100 µM (inactive) | > 100 µM (inactive) | > 100 µM (inactive) | > 100 µM (inactive) | > 100 µM (inactive) | > 100 µM (inactive) | > 100 µM (inactive) | > 100 µM (inactive) | > 100 µM (inactive) | > 100 µM (inactive) | –
18 | CC(=O)OCC1OC(n2c(=O)n(-c3ccccc3)c(=O)c3ccccc32)C(OC(C)=O)C(OC(C)=O)C1OC(C)=O (configuration not stated) | > 100 µM (inactive) | > 100 µM (inactive) | > 100 µM (inactive) | > 100 | > 100 µM (inactive) | > 100 µM (inactive) | > 100 µM (inactive) | > 100 µM (inactive) | > 100 µM (inactive) | > 100 µM (inactive) | > 100 µM (inactive) | > 100 µM (inactive) | > 100 µM (inactive) | > 100 µM (inactive) | > 100 µM (inactive) | > 100 µM (inactive) | –
